Laboratory results: patent US8074906B2, “Process for milling and preparing powders and compositions produced thereby” (Nanotherapeutics, Inc., priority 2005, dated 2011)
Each block holds one compound with its values, some of them ahead of it.

Columns and labels:
[1] = particle size by Coulter DELSA 440; format: physicochemical
Description: Oxcarbazepine, an antiepileptic drug marketed as Trileptal® by Novartis, is a white crystalline powder practically insoluble in water. Oxcarbazepine (100%) was milled in 1 kg batches according to the method described in EXAMPLE 1.
[…]

[2] = moisture uptake (weight change) at room temperature and humidity; format: physicochemical; conditions: lyophilized simple salt, 24 hours
Experimental: Initial Zn-DTPA simple salt solutions were prepared and lyophilized, producing a hygroscopic mixture not stable at room temperature and humidity (>10% moisture uptake in 24 hours). Zn-DTPA (trisodium zinc diethylenetriaminepentaacetate) were then mixed with (1) hydroxyl-propyl-methylcellulose (HPMC, K100M, Dow), (2) lactose (USP, Hawkins), and (3) silica dioxide (Sipernat 50S, Degussa) and dried using lyophilization. Preparation procedures include (A) mixing ingredients (75 and 90% Zn-DTPA, 1 g total each) into 10 ml DI water and adjusting pH with NaOH, (B) freezing at −20 C, (C) lyophilizing overnight (shelves at room temp), and (D) measuring the moisture uptake (weight change) at room temperature (20-25° C.) and humidity (40-55%) at 1 month.

[3] = in vivo pharmacokinetics of taurine formulations in rats; conditions: rat, oral, read-out: bioavailability (BA)

particle size ([1]; Pass 1): 2250 nm | particle size ([1]; Pass 2): 524 nm | particle size ([1]; Pass 3): 400 nm | particle size ([1]; Pass 4): 264 nm
Structure (SMILES): NC(=O)N1c2ccccc2CC(=O)c2ccccc21 [Oxcarbazepine]

moisture uptake [2]: > 10%
Structure (SMILES): O=C([O-])CN(CCN(CC(=O)[O-])CC(=O)[O-])CCN(CC(=O)[O-])CC(=O)[O-].[Na+].[Na+].[Na+].[Zn+2] [Zn-DTPA, trisodium zinc diethylenetriaminepentaacetate]

bioavailability [3]: 18%
Structure (SMILES): NCCS(=O)(=O)O [unformulated taurine, Taurine]
